Counter-ions that a name gives are not always drawn.
Molecular target: LsrK (Salmonella typhimurium, UniProt Q8ZKQ6)
Assay: biochemical
Format: biochemical, S. typhimurium
Details: not given

Sequence of LsrK (Q8ZKQ6 whole entry): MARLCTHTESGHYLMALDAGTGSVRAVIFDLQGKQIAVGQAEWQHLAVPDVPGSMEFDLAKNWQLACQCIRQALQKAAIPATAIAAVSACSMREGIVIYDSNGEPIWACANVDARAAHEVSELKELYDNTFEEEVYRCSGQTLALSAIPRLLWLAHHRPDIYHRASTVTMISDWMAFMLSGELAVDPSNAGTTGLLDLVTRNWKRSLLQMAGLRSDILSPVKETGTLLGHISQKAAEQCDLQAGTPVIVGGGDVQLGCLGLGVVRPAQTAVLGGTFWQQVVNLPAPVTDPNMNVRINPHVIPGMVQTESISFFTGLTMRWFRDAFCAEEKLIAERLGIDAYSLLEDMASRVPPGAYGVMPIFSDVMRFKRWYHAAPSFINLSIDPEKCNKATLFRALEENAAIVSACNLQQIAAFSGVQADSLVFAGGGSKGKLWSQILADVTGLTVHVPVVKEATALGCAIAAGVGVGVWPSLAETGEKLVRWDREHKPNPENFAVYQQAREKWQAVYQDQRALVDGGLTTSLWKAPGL

Structure (SMILES) | inhibition at 50 µM [%]
CCN1CCN(C(=O)N[C@@H](C(=O)N[C@@H]2C(=O)N3C(C(=O)O)=C(CSc4nnnn4C)CS[C@H]23)c2ccc(O)cc2)C(=O)C1=O [CEFOPERAZONE SODIUM] | 0
CO/N=C(\C(=O)N[C@@H]1C(=O)N2C(C(=O)O)=C(COC(C)=O)CS[C@H]12)c1csc(N)n1 [CEFOTAXIME SODIUM] | 32
CO[C@@]1(NC(=O)Cc2cccs2)C(=O)N2C(C(=O)O)=C(COC(N)=O)CS[C@@H]21 [CEFOXITIN SODIUM] | 3
COCC1=C(C(=O)OC(C)OC(=O)OC(C)C)N2C(=O)[C@@H](NC(=O)/C(=N\OC)c3csc(N)n3)[C@H]2SC1 (stereo partly drawn) [CEFPODOXIME PROXETIL] | 24
CC(C)(O/N=C(\C(=O)N[C@@H]1C(=O)N2C(C(=O)[O-])=C(C[n+]3ccccc3)CS[C@H]12)c1csc(N)n1)C(=O)O [CEFTAZIDIME] | 70
Nc1nc(/C(=C/CC(=O)O)C(=O)N[C@@H]2C(=O)N3C(C(=O)O)=CCS[C@H]23)cs1 [CEFTIBUTEN] | 105
CO/N=C(\C(=O)N[C@@H]1C(=O)N2C(C(=O)OC(C)OC(C)=O)=C(COC(N)=O)CS[C@H]12)c1ccco1 (stereo partly drawn) [CEFUROXIME AXETIL] | 2
CO/N=C(\C(=O)N[C@@H]1C(=O)N2C(C(=O)O)=C(COC(N)=O)CS[C@H]12)c1ccco1 [CEFUROXIME SODIUM] | 3
Cc1ccc(-c2cc(C(F)(F)F)nn2-c2ccc(S(N)(=O)=O)cc2)cc1 [CELECOXIB] | 1
CC(=O)OCC1=C(C(=O)O)N2C(=O)[C@@H](NC(=O)Cc3cccs3)[C@H]2SC1 [CEPHALOTHIN SODIUM] | 1
O=C(O)COCCN1CCN(C(c2ccccc2)c2ccc(Cl)cc2)CC1 (stereo not drawn) [CETIRIZINE HYDROCHLORIDE] | 1
CCCCCCCCCCCCCCCC[N+](C)(C)C [CETRIMONIUM BROMIDE] | 125
C[C@H](CCC(=O)O)[C@H]1CC[C@H]2[C@@H]3[C@H](O)C[C@@H]4C[C@H](O)CC[C@]4(C)[C@H]3CC[C@]12C [CHENODIOL] | 2
COc1cc(-c2ccc(/N=N/c3ccc4c(S(=O)(=O)O)cc(S(=O)(=O)O)c(N)c4c3O)c(OC)c2)ccc1/N=N/c1ccc2c(S(=O)(=O)O)cc(S(=O)(=O)O)c(N)c2c1O [CHICAGO SKY BLUE] | 41
OC[C@@H](O)[C@H]1O[C@@H]2O[C@H](C(Cl)(Cl)Cl)O[C@@H]2[C@H]1O [CHLORALOSE] | 1
CC(=O)O[C@]1(C(C)=O)CC[C@H]2[C@@H]3C=C(Cl)C4=CC(=O)CC[C@]4(C)[C@H]3CC[C@@]21C [CHLORMADINONE ACETATE] | 1
[H]/N=C(\N/C(=N/[H])Nc1ccc(Cl)cc1)NC(C)C [CHLOROGUANIDE HYDROCHLORIDE] | 1
NS(=O)(=O)c1cc2c(cc1Cl)N=CNS2(=O)=O [CHLOROTHIAZIDE] | 0
Oc1c(Cl)cc(Cl)c2cccnc12 [CHLOROXINE] | 13
CCCNC(=O)NS(=O)(=O)c1ccc(Cl)cc1 [CHLORPROPAMIDE] | 1
CN(C)CC/C=C1/c2ccccc2Sc2ccc(Cl)cc21 [CHLORPROTHIXENE HYDROCHLORIDE] | 2

Structure (SMILES) | inhibition at 50 µM [%]
CCOP(=S)(OCC)Oc1nc(Cl)c(Cl)cc1Cl [CHLORPYRIFOS] | 0
Cc1ccc2c(Cl)cc(Cl)c(O)c2n1 [CHLORQUINALDOL] | 0
CN(C)[C@@H]1C(O)=C(C(N)=O)C(=O)[C@@]2(O)C(O)=C3C(=O)c4c(O)ccc(Cl)c4[C@@](C)(O)[C@H]3C[C@@H]12 [CHLORTETRACYCLINE HYDROCHLORIDE] | 77
C[C@H](CCC(=O)O)[C@H]1CC[C@H]2[C@@H]3CCC4CCCC[C@]4(C)[C@H]3C=C[C@]12C (stereo partly drawn) [CHOL-11-ENIC ACID] | 45
C=C1CC[C@H](O)C/C1=C/C=C1\CCC[C@]2(C)[C@@H]([C@H](C)CCCC(C)C)CC[C@@H]12 [CHOLECALCIFEROL] | 90
CC(C)CCC[C@@H](C)[C@H]1CC[C@H]2[C@@H]3CC=C4C[C@@H](O)CC[C@]4(C)[C@H]3CC[C@]12C [CHOLESTEROL] | 0
C[C@H](CCC(=O)O)[C@H]1CC[C@H]2[C@@H]3[C@H](O)C[C@@H]4C[C@H](O)CC[C@]4(C)[C@H]3C[C@H](O)[C@]12C [CHOLIC ACID] | 0
COc1cc(OC)c2c(=O)cc(-c3ccccc3)oc2c1 [CHRYSIN DIMETHYL ETHER] | 1
O=c1cc(-c2ccccc2)oc2cc(O)cc(O)c12 [CHRYSIN] | 3
Cc1cc(O)c2c(c1)C(=O)c1cccc(O)c1C2=O [CHRYSOPHANOL] | 1
COC(=O)C[C@H]1C2(C)CC34OC5(C)O[C@@]6([C@H](OC)C(OC(=O)C(C)C)[C@]7(C)C(/C(=C(/OC)C(C)C)C(=O)O[C@H]7c7ccoc7)[C@@]6(O5)[C@H](OC)[C@@]3(OC)C2OC(C)=O)[C@]14C (stereo partly drawn) [CHUKRASIN METHYL ETHER] | 1
O=C(O)CCCCCCCCCCCC[C@@H]1C=CCC1 [CH[…]] | 156
O=C1CCc2cc(OCCCCc3nnnn3C3CCCCC3)ccc2N1 [CILOSTAZOL] | 2
C=C[C@H]1CN2CC[C@H]1C[C@H]2[C@H](O)c1ccnc2ccccc12 [CINCHONIDINE] | 0
C=C[C@H]1C[N@@]2CC[C@H]1C[C@@H]2[C@@H](O)c1ccnc2ccccc12 [CINCHONINE] | 1
O=C(O)c1cc(-c2ccccc2)nc2ccccc12 [CINCHOPHEN] | 6
CC12CCC(CC1)C(C)(C)O2 [CINEOLE] | 1
O=C(O)c1cn(C2CC2)c2cc(N3CCNCC3)c(F)cc2c1=O [CIPROFLOXACIN] | 1
CC[C@H]1OC(=O)[C@H](C)[C@@H](O[C@H]2C[C@@](C)(OC)[C@@H](O)[C@H](C)O2)[C@H](C)[C@@H](O[C@@H]2O[C@H](C)C[C@H](N(C)C)[C@H]2O)[C@](C)(OC)C[C@@H](C)C(=O)[C@H](C)[C@@H](O)[C@]1(C)O [CLARITHROMYCIN] | 0
CCC[C@@H]1C[C@@H](C(=O)N[C@@H]([C@H]2O[C@H](SC)[C@H](O)[C@@H](O)[C@H]2O)[C@H](C)Cl)N(C)C1 [CLINDAMYCIN HYDROCHLORIDE] | 0
Oc1c(I)cc(Cl)c2cccnc12 [CLIOQUINOL] | 1

Same assay, conditions: 50 µM

Structure (SMILES) | Inhibition (%)
CO/N=C(\C(=O)N[C@@H]1C(=O)N2C(C(=O)OCOC(=O)C(C)(C)C)=C(/C=C\c3scnc3C)CS[C@H]12)c1csc(N)n1 [CEFDITORIN PIVOXIL] | 2
O=C([O-])C1=C(CSc2nnnn2CS(=O)(=O)[O-])CS[C@@H]2[C@H](NC(=O)[C@H](O)c3ccccc3)C(=O)N12.[Na+].[Na+] [CEFONICID SODIUM] | 0
CO/N=C(/C(=O)N[C@@H]1C(=O)N2C(C(=O)[O-])=C(CSc3nc(=O)c([O-])nn3C)CS[C@H]12)c1csc(N)n1.O.O.O.[Na+].[Na+] [CEFTRIAXONE SODIUM TRIHYDRATE] | 0
OC[C@H]1O[C@@H](O[C@H]2[C@H](O)[C@@H](O)[C@H](O)O[C@@H]2CO)[C@H](O)[C@@H](O)[C@@H]1O [CELLOBIOSE (D[+])] | 0
CC(=O)OCC1=C(C(=O)[O-])N2C(=O)[C@@H](NC(=O)CCCC(N)C(=O)O)[C@H]2SC1.[Na+] (stereo partly drawn) [CEPHALOSPORIN C SODIUM] | 32
N.N.[Cl][Pt][Cl] [CISPLATIN] | 2
